Entries after “also recorded” stand apart in the source; their conditions may differ.
Assays:
[1] = report submitted on Agr 529; cited from earlier work
normal animals = experiment: Administration in normal animals, hypolipemia (conclusion, route not stated); assay type: in vivo
Method: (§1) In normal animals, the fatty acids, triglycerides and cholesterol are determined by automated enzymatic reactions.

[2] = system: hypertriglyceridemia provoked by Triton WR1339 in Sprague-Dawley rats; experiment: Triton-provoked hypertriglyceridemia in rats, per os; assay type: in vivo, rat; conditions: for Triglycerides: Triton controls 7.53 ± 0.49; for triglycerides plasma concentrations: per os in doses of 3 and 30 mg/kg; for triglycerides plasma concentrations / action on the increase in the circulating triglycerides: Triton model; for action on the increase in the circulating triglycerides: per os
Method: (§2) Sprague-Dawley male white rats, Iffa Credo, of an average weight of 260-270 g.
(§3) The hypertriglyceridemia is obtained by the intravenous (iv) injection of Triton WR1339 (tyloxapol) in a dose of 600 mg/kg, obtained from the Sigma Chemical Company, N. T 8761 (marginal vein of the ear of the rabbit, jugular vein or vein of the penis of the rat, under slight ether anesthesia, the pentobarbital which attaches itself on the A1 receptors being capable of interacting with the molecules used (Lhose et al., 1985). All the animals used had fasted for 15 hours. The blood was collected over heparin, centrifuged for 20 minutes (3000 rpm at 4° C.). In the serum collected, the TG (triglycerides) are determined in accordance with the GPO-PAP method Boeringher Peridochrom® Kit, item 701-882.
The animals are divided into six lots:
one control-control lot receiving per os isotonic saline solution in a volume of 0.2 ml/100 g of rat 30 minutes before the iv injection of isotonic saline solution.
a Triton control lot receiving per os isotonic saline solution 30 minutes before the iv injection of Triton.
an Agr 529 lot (3 mg/kg in a volume of 0.2 ml/100 g of rat), 30 minutes before the iv injection of Triton.
one lot receiving, under the same conditions, 30 mg/kg of Agr 529 per os.
two lots receiving, under the same conditions as previously, 3 and 30 mg/kg of Agr 540 per os.

normal rats [3] = experiment: Normal rats, intravenous administration, plasma lipids; assay type: in vivo, rat
Method: as §1
The animals are distributed into six lots of five animals each:
a control lot receiving the placebo (0.9% isotonic saline solution),
five treated lots receiving 0.03, 0.1, 0.3, 1 and 3 mg/kg of Agr 529 respectively by intravenous injection.
The animals are sacrificed two hours after the injection of the product.

[4] = system: hypertriglyceridemia provoked by Triton WR1339 in Fauve de Bourgogne rabbits; experiment: Triton-provoked hypertriglyceridemia in rabbits, Agr 529 iv; assay type: in vivo, rabbit
Method: Fauve de Bourgogne rabbits of an average weight of 2 kg (EGAV).
as §3
(§4) The animals are divided into two lots:
a control lot (6 animals) receiving isotonic saline solution iv in a volume of 0.5 ml/kg two hours before the injection of Triton and the same dose of saline solution as previously.
a treated lot (7 animals) receiving 2 mg/kg of Agr 529 iv in a volume of 0.5 ml/kg two hours before the injection of Triton and a new dose of Agr 529 (2 mg/kg).
A sampling of arterial blood, two hours after the injection of the Triton, permits determination of the triglycerides.

normal rats [5] = experiment: Normal rats, intraperitoneal administration, plasma lipids; assay type: in vivo, rat
Method: as §1
The animals are distributed in five lots of five animals each:
[…] receiving 0.1, 0.3, and 3 mg/kg.
The animals are sacrificed two hours after the administration of the Agr 529.

[6] = system: ACAT (cholesterol-O-acyl transferase); experiment: In vitro study on microsomal fraction of liver: ACAT activity; assay type: biochemical; conditions: 'the same' = no action
normal rats [7] = experiment: Kinetic study of Agr 529 at 3 mg/kg iv in normal rats; assay type: in vivo, rat
Method: as §1
c) Kinetic study of Agr 529 in an amount of 3 mg/kg iv (FIG. V, VI, VII, VIII).

[8] = system: hypertriglyceridemia provoked by Triton WR1339 in Sprague-Dawley rats; experiment: Triton-provoked hypertriglyceridemia in rats, intraperitoneal route; assay type: in vivo, rat
Method: as §2, §3, §4
a control lot (4 animals) receiving isotonic saline solution in a volume of 0.2 ml/100 g of rat by intraperitoneal injection (ip), 20 minutes before the injection of the Triton (iv).
a treated lot (5 animals) receiving 2 mg/kg of Agr 529 ip, under the same conditions as the controls.
Two hours later, the animals are sacrificed by decapitation; the blood is collected by the method previously described, for determination of the triglycerides.

[9] = system: HMG CoA reductase (β-hydroxy-β-methylglutaryl CoA reductase); experiment: In vitro study on microsomal fraction of liver: HMG CoA reductase activity; assay type: biochemical
[10] = rats, 30 mg/kg P.O. + Triton 600 mg/kg iv

## CCC(=O)OC[C@H]1O[C@@H](n2cnc3c(NCCCC(N)=O)ncnc32)[C@H](OC(=O)CC)[C@@H]1OC(=O)CC [Agr 540, 6-(3-carboxamido-propylamino)-9-(2', 3', 5', tripropionyl-β-D-ribosyl) purine]
[1]
  absorption per os relative to Agr 529: better absorbed per os
Normal animals
  hypolipemia (reduction of fatty acids, phospholipides, triglycerides and cholesterol): causes a hypolipemia
[2]; rats n = 6, first Agr 540 column, head prints 30 mg/kg P.O. + Triton 600 mg/kg iv
  Triglycerides: 5.65 ± 0.46 mmols/liter
[2]; [10]
  Triglycerides: 3.67 ± 0.59 mmols/liter
[2]; rats
  triglycerides plasma concentrations: return the triglycerides plasma concentrations to normal
  action on the increase in the circulating triglycerides: significantly oppose the increase in the circulating triglycerides

## NC(=O)CCCNc1ncnc2c1ncn2[C@@H]1O[C@H](CO)[C@@H](O)[C@H]1O [Agr 529, (N6-3-carboxamido-propyl) adenosine]
Normal animals
  hypolipemia (reduction of fatty acids, phospholipides, triglycerides and cholesterol): causes a hypolipemia
[2]; rats, 3 mg/kg P.O. + Triton 600 mg/kg iv
  Triglycerides: 4.87 ± 0.69 mmols/liter
[2]; [10]
  Triglycerides: 4.64 ± 0.74 mmols/liter
[2]; rats
  triglycerides plasma concentrations: return the triglycerides plasma concentrations to normal
  action on the increase in the circulating triglycerides: significantly oppose the increase in the circulating triglycerides
Normal rats [3]; 3 mg/kg iv
  hyperglycemia: hyperglycemia is furthermore noted
Normal rats [3]; 3 mg/kg iv, two hours after the injection, 3 mg/kg
  concentration of plasma triglycerides, total cholesterol, fatty acids and phospholipides: significant decrease
Normal rats [3]; Rattus norvegicus, 2 h, iv, doses 0.03-3 mg/kg, two hours after injection, read-out: dose from which the hypolipemizing effect appears
  minimal effective dose: ≥ 0.1 mg/kg
Normal rats [3]; intravenous administration
  plasma concentrations of fatty acids, phospholipides, triglycerides and total cholesterol, dose dependence: decrease, as a function of the doses
Normal rats [3]; route not specified
  cholesterol and triglyceride concentrations of the high density lipoproteins (HDL): No action
[4]; 2 mg/kg intravenously in rabbits, Triton WR 1339 model
  plasma concentration of the circulating triglycerides: normalized the plasma concentration of the circulating triglycerides
[4]; rabbits n = 7, 2 hours after Agr 529 2 mg/kg iv, before Triton
  Triglycerides time = 2: 3.19 ± 0.38 mmol/L
[4]; rabbits n = 7, 2 hours after second Agr 529 2 mg/kg iv + Triton 600 mg/kg iv
  Triglycerides time = 4: 4.65 ± 0.44 mmol/L
[4]; rabbits, Agr 529 2 mg/kg iv, control increase 196.5%
  increase of the triglycerides caused by Triton: 45%
[4]; rabbits, test lot n = 7, time = 0, before first injection of Agr 529 2 mg/kg iv
  Triglycerides time = 0: 1.95 ± 0.34 mmol/L
[4]; rabbits, time 4, Agr 529 2 mg/kg iv
  concentration of triglycerides less than the Triton controls: 150%
Normal rats [5]; 0.3 mg/kg intraperitoneal
  hyperglycemia: hyperglycemia is no longer found
Normal rats [5]; Rattus norvegicus, ip, 2 h, intraperitoneal, two hours after administration, read-out: dose from which the hypolipemizing effect starts to be significant
  minimal effective dose: ≥ 0.3 mg/kg
Normal rats [5]; intraperitoneal administration
  hypolipemia, dose dependence: hypolipemia as a function of the doses
[6]
  action on the activity of ACAT: The same is true
Normal rats [7]
  time after injection at which the hypolipemizing effect starts to appear: 30 min
  time of maximum hypolipemizing effect: maximum at the end of two hours; also recorded: maximum effect at two hours
Normal rats [7]; inferred in vivo
  stability towards adenosine deaminase (inferred from long duration of action): not destroyed by the adenosine deaminase
Normal rats [7]; kinetic study
  concentrations of fatty acids, triglycerides, total cholesterol and phospholipides: significant decrease
[8]; 2 mg/kg intraperitoneally, Triton WR 1339 model
  plasma concentration of the circulating triglycerides: normalized the plasma concentration of the circulating triglycerides
[8]; rats n = 5, Agr 529 2 mg/kg ip + Triton 600 mg/kg iv, two hours later, controls 6.32 ± 0.92
  Triglycerides: 2.90 ± 0.26 mmols/liter
[8]; rats, Agr 529 2 mg/kg ip, Triton model, significant (**)
  decrease in the quantity of triglycerides in circulation: 54%
[9]
  action on the activity of the HMG CoA reductase: no action

Reference: US5322840A, “Treatment of hyperlipemia and hypertriglyceridemia” (Centre d'Etudes Experimentales et Cliniques de …, priority 1990, dated 1994)
